Calls of active or inactive are those of the source.
What was measured:
Format in all cases: functional
[1] = molecular target: T1, Tyrosine-protein kinase JAK3 (Homo sapiens, UniProt P52333)
T1 sequence (P52333 whole entry): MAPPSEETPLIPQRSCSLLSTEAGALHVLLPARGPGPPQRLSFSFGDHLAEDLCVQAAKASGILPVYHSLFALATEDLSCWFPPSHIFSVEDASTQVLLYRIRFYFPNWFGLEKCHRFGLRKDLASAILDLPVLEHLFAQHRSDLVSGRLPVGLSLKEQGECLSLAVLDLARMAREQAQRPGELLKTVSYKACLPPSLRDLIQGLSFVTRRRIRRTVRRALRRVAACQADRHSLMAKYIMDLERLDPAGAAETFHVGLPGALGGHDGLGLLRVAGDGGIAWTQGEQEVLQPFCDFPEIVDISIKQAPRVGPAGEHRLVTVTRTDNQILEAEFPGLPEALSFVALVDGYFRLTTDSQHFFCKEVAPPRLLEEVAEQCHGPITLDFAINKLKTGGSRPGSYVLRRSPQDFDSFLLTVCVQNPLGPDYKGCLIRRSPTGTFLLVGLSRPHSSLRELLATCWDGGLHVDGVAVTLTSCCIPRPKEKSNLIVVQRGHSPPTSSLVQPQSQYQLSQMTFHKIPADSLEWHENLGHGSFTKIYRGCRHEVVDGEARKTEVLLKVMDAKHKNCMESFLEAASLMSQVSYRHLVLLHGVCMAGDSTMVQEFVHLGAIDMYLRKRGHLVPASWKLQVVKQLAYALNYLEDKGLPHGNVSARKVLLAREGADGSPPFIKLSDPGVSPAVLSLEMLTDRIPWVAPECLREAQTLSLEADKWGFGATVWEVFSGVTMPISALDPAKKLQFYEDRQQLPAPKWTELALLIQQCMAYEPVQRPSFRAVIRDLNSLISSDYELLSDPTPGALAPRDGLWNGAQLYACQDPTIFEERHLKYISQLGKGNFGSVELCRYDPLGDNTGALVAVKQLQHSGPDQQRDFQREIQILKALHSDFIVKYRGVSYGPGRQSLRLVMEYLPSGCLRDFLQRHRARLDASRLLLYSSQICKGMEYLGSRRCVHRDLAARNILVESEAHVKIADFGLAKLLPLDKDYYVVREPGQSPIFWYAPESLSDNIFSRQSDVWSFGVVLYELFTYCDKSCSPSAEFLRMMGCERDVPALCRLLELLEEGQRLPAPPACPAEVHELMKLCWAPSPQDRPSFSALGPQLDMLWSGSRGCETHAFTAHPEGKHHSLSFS

[2] = molecular target: cAMP-dependent protein kinase catalytic subunit alpha (Homo sapiens, UniProt P17612)
[3] = molecular target: Glycogen synthase kinase-3 alpha (Homo sapiens, UniProt P49840);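 further: GSK3A result taken from a broad kinome-wide kinase panel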
[4] = molecular target: Serine/threonine-protein kinase PAK 4 (Homo sapiens, UniProt O96013);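 further: value obtained within a kinome profiling panel in which PAK4 was one of the panel members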
[5] = molecular target: Platelet-derived growth factor receptor alpha (Homo sapiens, UniProt P16234); assay: Navigating the Kinome. Panel member name: PDGFRA
Activated CDC42 kinase 1 = Activated CDC42 kinase 1 (Homo sapiens, UniProt Q07912); assay: Navigating the Kinome. Panel member name: ACK1
Aurora kinase A = molecular target: T2, Aurora kinase A (Homo sapiens, UniProt O14965);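 further: value from the Navigating the Kinome kinase panel profiling, panel entry STK6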
T2 sequence (O14965 whole entry): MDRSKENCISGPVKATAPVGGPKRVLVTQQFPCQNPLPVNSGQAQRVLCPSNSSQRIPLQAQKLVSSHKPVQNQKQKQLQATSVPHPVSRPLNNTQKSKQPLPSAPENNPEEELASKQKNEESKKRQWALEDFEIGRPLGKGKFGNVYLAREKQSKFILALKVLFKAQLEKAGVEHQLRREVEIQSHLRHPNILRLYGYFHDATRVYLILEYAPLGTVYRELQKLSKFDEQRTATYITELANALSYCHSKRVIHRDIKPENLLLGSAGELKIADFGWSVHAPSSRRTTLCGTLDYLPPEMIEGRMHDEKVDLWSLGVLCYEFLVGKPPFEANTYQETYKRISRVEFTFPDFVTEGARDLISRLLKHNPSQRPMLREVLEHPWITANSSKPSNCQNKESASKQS

[6] = molecular target: Hepatocyte growth factor receptor (Homo sapiens, UniProt P08581);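 further: kinase panel profiling across the kinome, with MET as the panel member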
[7] = molecular target: Tyrosine-protein kinase JAK2 (Homo sapiens, UniProt O60674);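 further: JAK2 tested as one member of a kinase panel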
[8] = molecular target: T3, Receptor-type tyrosine-protein kinase FLT3 (Homo sapiens, UniProt P36888);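 further: FLT3 was tested as one member of a kinome-wide kinase panel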
T3 sequence (P36888 whole entry): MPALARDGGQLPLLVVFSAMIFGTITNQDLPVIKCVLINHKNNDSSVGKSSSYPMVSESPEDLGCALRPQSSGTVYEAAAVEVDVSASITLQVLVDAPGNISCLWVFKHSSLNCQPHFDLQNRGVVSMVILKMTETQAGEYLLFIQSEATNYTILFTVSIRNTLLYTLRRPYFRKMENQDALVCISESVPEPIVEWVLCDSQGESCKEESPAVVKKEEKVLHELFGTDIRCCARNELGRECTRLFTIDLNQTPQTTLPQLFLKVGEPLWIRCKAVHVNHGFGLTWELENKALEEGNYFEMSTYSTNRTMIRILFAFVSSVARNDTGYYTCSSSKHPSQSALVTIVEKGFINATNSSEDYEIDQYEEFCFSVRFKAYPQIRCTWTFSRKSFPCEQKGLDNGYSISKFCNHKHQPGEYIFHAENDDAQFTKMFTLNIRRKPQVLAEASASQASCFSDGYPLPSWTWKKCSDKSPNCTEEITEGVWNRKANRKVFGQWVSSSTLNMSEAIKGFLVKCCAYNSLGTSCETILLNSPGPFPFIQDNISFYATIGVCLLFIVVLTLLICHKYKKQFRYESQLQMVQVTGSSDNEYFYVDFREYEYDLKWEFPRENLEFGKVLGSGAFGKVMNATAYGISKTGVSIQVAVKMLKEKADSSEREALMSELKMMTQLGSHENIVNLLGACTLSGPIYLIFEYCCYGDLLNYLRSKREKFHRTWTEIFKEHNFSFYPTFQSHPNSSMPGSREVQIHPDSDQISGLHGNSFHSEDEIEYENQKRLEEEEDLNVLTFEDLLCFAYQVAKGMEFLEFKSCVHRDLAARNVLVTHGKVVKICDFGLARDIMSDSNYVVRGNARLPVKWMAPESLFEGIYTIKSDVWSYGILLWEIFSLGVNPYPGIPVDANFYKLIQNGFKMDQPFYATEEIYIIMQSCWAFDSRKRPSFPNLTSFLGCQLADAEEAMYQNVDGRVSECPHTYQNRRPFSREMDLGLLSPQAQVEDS

[9] = molecular target: Dual specificity mitogen-activated protein kinase kinase 2 (Homo sapiens, UniProt P36507); assay: Navigating the Kinome. Panel member name: MAP2K2
[10] = molecular target: Serine/threonine-protein kinase pim-1 (Homo sapiens, UniProt P11309)
Chain of Serine/threonine-protein kinase pim-1 (P11309 whole entry): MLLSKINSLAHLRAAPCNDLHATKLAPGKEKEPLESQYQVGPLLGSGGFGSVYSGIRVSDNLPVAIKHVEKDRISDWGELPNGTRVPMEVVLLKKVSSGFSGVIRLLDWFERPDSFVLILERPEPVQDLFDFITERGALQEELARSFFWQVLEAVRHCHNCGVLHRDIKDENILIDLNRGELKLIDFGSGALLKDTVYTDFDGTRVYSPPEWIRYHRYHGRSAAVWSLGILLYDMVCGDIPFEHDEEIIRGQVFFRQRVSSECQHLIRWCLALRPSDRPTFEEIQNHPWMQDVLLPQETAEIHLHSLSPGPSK

Chain of Glycogen synthase kinase-3 alpha (P49840 whole entry): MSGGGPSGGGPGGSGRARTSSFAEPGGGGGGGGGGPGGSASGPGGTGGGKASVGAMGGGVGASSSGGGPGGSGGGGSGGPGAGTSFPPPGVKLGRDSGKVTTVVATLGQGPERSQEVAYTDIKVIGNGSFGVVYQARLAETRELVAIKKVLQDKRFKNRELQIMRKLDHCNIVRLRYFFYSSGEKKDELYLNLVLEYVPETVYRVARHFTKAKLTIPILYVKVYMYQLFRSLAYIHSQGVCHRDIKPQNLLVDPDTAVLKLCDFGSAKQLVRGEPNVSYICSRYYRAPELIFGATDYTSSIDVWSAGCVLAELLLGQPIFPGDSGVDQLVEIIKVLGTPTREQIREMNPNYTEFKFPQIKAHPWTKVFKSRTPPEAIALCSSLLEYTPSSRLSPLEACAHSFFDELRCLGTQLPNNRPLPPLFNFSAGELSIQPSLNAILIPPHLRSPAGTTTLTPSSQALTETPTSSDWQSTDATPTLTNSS
Chain of Hepatocyte growth factor receptor (P08581 whole entry): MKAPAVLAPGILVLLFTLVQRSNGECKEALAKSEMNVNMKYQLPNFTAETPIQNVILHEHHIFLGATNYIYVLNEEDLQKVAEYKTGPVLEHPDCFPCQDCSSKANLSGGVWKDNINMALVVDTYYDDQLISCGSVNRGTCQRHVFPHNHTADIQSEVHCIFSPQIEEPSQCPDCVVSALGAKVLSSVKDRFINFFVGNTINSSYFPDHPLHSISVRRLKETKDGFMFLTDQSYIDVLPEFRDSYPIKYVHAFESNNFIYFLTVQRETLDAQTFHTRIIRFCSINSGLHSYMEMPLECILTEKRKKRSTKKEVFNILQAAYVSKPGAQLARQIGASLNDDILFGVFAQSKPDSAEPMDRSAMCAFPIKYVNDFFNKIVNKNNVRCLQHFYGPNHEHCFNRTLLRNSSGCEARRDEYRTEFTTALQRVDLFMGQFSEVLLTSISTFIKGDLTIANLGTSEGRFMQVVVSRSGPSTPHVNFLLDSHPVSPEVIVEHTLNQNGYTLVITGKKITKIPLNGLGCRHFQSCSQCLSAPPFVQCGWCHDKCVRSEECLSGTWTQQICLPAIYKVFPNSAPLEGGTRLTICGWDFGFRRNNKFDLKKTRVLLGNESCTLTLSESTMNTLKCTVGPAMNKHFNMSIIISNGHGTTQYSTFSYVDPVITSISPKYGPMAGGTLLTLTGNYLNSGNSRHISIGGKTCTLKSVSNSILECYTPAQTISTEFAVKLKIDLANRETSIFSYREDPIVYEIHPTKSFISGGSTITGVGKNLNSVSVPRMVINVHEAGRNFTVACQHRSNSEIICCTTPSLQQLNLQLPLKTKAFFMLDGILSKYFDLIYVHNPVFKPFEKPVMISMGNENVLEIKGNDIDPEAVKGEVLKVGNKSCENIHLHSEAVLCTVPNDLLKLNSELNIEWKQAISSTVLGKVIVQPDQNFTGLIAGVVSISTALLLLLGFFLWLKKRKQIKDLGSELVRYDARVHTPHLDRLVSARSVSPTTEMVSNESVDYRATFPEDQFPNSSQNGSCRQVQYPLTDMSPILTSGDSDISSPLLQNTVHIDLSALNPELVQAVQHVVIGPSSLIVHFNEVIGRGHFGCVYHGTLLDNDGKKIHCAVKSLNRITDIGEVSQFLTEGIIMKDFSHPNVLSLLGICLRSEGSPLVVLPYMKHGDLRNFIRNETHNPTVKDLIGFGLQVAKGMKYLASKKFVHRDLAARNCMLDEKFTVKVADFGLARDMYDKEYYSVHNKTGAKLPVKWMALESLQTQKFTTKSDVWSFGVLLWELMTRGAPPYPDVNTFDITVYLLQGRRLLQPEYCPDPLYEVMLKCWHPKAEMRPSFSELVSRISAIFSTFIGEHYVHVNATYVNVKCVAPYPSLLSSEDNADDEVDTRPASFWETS
Chain of Serine/threonine-protein kinase PAK 4 (O96013 whole entry): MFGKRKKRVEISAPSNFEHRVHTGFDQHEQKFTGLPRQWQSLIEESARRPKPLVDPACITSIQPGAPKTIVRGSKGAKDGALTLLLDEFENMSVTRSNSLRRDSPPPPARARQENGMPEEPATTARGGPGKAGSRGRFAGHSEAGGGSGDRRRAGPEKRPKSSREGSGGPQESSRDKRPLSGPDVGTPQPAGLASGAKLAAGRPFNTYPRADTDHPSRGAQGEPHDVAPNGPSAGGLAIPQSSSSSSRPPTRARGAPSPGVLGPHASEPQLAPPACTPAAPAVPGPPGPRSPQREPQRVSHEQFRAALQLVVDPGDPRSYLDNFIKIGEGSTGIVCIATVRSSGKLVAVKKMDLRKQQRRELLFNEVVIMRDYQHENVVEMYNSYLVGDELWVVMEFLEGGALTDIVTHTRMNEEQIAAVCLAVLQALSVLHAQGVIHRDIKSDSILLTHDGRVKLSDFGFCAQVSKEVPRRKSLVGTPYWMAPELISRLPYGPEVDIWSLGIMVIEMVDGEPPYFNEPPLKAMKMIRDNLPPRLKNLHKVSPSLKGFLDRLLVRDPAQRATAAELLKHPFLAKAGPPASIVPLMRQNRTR
Chain of Platelet-derived growth factor receptor alpha (P16234 whole entry): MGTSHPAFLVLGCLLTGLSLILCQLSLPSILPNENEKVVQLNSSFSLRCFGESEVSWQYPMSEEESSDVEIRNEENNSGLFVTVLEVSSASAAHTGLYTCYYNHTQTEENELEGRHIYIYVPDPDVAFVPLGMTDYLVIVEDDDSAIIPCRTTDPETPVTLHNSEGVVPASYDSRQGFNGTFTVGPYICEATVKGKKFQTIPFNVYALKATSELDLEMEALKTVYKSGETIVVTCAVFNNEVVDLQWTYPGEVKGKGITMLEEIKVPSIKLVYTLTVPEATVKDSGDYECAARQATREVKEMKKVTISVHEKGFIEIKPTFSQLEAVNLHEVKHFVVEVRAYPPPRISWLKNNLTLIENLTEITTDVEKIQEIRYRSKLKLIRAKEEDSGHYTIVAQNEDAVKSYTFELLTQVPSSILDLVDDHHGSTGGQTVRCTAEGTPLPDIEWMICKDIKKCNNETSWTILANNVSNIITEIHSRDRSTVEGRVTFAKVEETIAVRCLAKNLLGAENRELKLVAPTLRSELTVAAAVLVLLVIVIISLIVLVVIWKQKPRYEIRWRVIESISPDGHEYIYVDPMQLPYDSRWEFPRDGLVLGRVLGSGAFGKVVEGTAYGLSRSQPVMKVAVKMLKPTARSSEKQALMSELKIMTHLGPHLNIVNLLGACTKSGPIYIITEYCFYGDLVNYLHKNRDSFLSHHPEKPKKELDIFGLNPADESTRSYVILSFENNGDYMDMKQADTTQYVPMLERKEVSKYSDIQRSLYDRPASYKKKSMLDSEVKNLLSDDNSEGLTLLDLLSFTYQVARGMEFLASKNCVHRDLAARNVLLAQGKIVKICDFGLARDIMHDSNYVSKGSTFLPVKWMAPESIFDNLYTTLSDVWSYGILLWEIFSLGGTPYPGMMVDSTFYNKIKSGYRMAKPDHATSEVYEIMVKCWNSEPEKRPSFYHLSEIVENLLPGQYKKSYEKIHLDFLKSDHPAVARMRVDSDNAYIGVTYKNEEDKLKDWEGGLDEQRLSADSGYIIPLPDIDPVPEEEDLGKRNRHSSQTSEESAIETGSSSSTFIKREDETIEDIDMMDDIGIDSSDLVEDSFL
Chain of Dual specificity mitogen-activated protein kinase kinase 2 (P36507 whole entry): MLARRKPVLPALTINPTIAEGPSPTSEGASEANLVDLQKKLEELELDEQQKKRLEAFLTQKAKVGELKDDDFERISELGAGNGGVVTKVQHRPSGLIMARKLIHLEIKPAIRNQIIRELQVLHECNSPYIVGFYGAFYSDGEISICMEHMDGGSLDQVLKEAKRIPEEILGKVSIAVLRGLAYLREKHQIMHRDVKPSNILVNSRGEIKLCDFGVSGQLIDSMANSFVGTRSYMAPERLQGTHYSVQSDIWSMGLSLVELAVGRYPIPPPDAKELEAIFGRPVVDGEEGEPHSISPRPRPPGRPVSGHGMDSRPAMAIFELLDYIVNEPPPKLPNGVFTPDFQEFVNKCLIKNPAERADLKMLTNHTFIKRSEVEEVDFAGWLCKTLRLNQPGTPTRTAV

| Ki [1] | Ki [2] | Ki [3] | Ki [4] | Ki [5] | Ki (Activated CDC42 kinase 1) | Ki (Aurora kinase A) | Ki [6] | Ki [7] | Ki [8] | Ki [9] | Ki [10] | SMILES |
| --- | --- | --- | --- | --- | --- | --- | --- | --- | --- | --- | --- | --- |
| > 5.01 µM (inactive) | > 1.26 µM (inactive) | > 3.98 µM (inactive) | > 5.01 µM (inactive) | > 2.51 µM (inactive) | > 3.98 µM (inactive) | > 1.58 µM (inactive) | > 2.51 µM (inactive) | > 2.51 µM (inactive) | > 3.16 µM (inactive) | > 3.98 µM (inactive) | > 6.31 µM (inactive) | COc1cccc(C(C)NC(=O)c2sc(-c3ccncc3)nc2C)c1 (stereo unspecified) |
| > 5.01 µM (inactive) | 0.316 µM (active) | > 3.98 µM (inactive) | > 5.01 µM (inactive) | > 2.51 µM (inactive) | > 3.98 µM (inactive) | > 1.58 µM (inactive) | > 2.51 µM (inactive) | > 2.51 µM (inactive) | > 2.51 µM (inactive) | > 3.98 µM (inactive) | > 6.31 µM (inactive) | CCCCC(=O)Nc1cc(-c2c[nH]c3ncccc23)cc(Cl)n1 |
| > 5.01 µM (inactive) | 1 µM (active) | > 3.98 µM (inactive) | > 5.01 µM (inactive) | > 3.16 µM (inactive) | > 3.98 µM (inactive) | > 1.58 µM (inactive) | > 2.51 µM (inactive) | > 2.51 µM (inactive) | > 2.51 µM (inactive) | > 3.98 µM (inactive) | > 6.31 µM (inactive) | Oc1ccc(-c2nc(-c3ccncc3)c(-c3ccc(F)cc3)[nH]2)cc1 [SB-202190] |

Reference: ChEMBL document CHEMBL1201862, “PubChem BioAssay data set” (2004)
